Measurements: patent US10758552B2, “Pharmaceutical composition containing combinations of nicotinamide and 5-aminosalicylic acid for beneficially influencing the intestinal microbiota and/or treating gastrointestinal inflammation” (CONARIS RESEARCH INSTITUTE AG, priority 2013, dated 2020)

Tests used:
[1] = system: dextrane sodium sulfate (DSS) colitis model in mice; experiment: DSS colitis model in mice on Trp/Nia/NAM-free diet, histological scoring of the colon (Example 1); type: in vivo, C57BL/6J mice; conditions: 1.5% DSS
Method: In order to characterise the combined effect of 5-ASA and nicotinamide (NAM) in controlled release formulations for targeted delivery of both substances to the intestinal epithelium, a study was conducted in a dextrane sodium sulfate (DSS) colitis model in mice. In this study, a controlled release granule formulation for was tested in two different doses (30 mg/kg and 60 mg/kg). As a representative controlled release formulation for 5-ASA, 5-ASA granules ([…]®; Ferring Pharmaceuticals, Saint-Prex, Switzerland) were used both alone and in combination with the NAM granules. The controlled release formulation for NAM is a granulate of 25% nicotinamide, 70% dibasic calcium phosphate and 5% Povidone K30. The mean particle size was 234 μm. […] Filtering removed particles with a size of less than 355 μm. Control granules replaced NAM with an equivalent amount of dibasic calcium phosphate. Male C57BL/6J mice (specific pathogen free; Charles River Laboratories, Saint-Germain-sur-l'Arbresle, France) were taken into the test facility at >12 weeks of age and acclimatised for 1 week. The diet during the acclimatisation phase was diet A4, produced by SAFE (Scientific Animal Food and Engineering, Augy, France). […] The fixed doses for the other granules were calculated in an analogous fashion. […]

murine DSS colitis model = experiment: DSS colitis model in mice on normal diet, disease activity index (DAI) scoring (Example 2); type: in vivo, C57BL/6J mice; conditions: for % improvement of DAI vs DSS: granules in food, 2.5% DSS
Method: In a second and much larger study, NAM and 5-ASA controlled release granules were used again in the murine DSS colitis model (see Example 1) to confirm the anti-inflammatory properties of NAM in one low dose (30 mg/kg) and to investigate two higher dosages (120 or 240 mg/kg) not administered in the first study. […] One very important difference to the first study described in Example 1 was the fact that the mice received normal food with normal levels of tryptophan, nicotinic acid and nicotinamide (SAFE diet A4; Scientific Animal Food and Engineering, Augy, France; see Example 1). Therefore, any effects observed in this second study cannot be due to supplementation of NAM to NA/NAM/Trp-starved mice. In the present study, the same DSS colitis model in C57BL/6J mice as in Example 1 was used, albeit with some minor modifications: 2.5% DSS were used to provide a stronger DSS challenge. The animals were acclimatised for one week to stabilise their microbiota, randomised into 9 different groups as illustrated in the following Table 1 and then kept for 10 days on the different diets (days -10 to -1) before inducing colitis by DSS in the drinking water (day 0-day 6) followed by a washout period with normal drinking water (day 6-day 9). All groups received 2.5% DSS. [table] [table] The 5-ASA granules were the same as in Example 1. Their 5-ASA content was 52% (one granule weighed 0.5 mg and contained 0.26 mg of 5-ASA). The 5-ASA granules were mixed with regular food for preparation of single-use food aliquots, which were stored frozen at -20° C. and thawed daily prior to feeding the mice. […] Therefore, the food was prepared with 2.88 g of granules per kg of food (for the 150 mg/kg dose) or 1.44 g/kg (for the 75 mg/kg dose). The NAM granules of the present example were produced by the same manufacturer and in a similar formulation (diameter: 0.355-0.500 mm; NAM content: 19.1%) as in Example 1. Three kinds of food were prepared in an analogous fashion to the food with 5-ASA granules as described above. […] Therefore, the food preparation for the three dose groups was performed as follows: 1.57 g of granules per kg of food for the 30 mg/kg dose group, 6.28 g of granules per kg of food for the 120 mg/kg dose group and 12.56 g of granules per kg of food for the 240 mg/kg dose group. For the control group, food without granules was processed in the same fashion as the granule-containing food preparations described above in order to exclude preparation artefacts. After euthanasia, the colon was analysed and the disease activity index (DAI; score 0-9) was scored using an adapted DAI system based on […] et al. 2005 (Am. J. Physiol. Gastrointest. Liver Physiol. 288:[…]). As no visible blood was observed, the blood scoring parameter according to […] et al. was changed to scoring the signal strength for occult blood in feces detected by the ColoScreen test (Helena Laboratories, Beaumont, Tex., USA). This signal strength scoring was performed independently by two investigators blinded to the identity of the samples. [table] All comparisons were analysed using the […] for two independent samples in the StatXact software (Cytel, Cambridge, Mass., USA).

Structure (SMILES) | histological score of the colonic mucosa ([1]; 5-ASA granules alone in diet, 150 mg/kg) | stool consistency (diarrhea) (murine DSS colitis model; 75 mg/kg 5-ASA alone) | % improvement of DAI vs DSS (murine DSS colitis model; 75 mg/kg 5-ASA) [%] | stool consistency (diarrhea) (murine DSS colitis model; 150 mg/kg 5-ASA alone) | % improvement of DAI vs DSS (murine DSS colitis model; 150 mg/kg 5-ASA) [%] | mice having blood in the feces (occult blood) (murine DSS colitis model; 150 mg/kg 5-ASA, control mice 100%, day of necropsy) [%] | macroscopic inflammation score, dose effect (murine DSS colitis model; 5-ASA alone, 75 vs 150 mg/kg) | disease activity index (DAI), dose effect (murine DSS colitis model; doubling the dose of 5-ASA from 75 to 150 mg/kg) | histological score of the colonic mucosa ([1]; NAM granules alone in diet, 30 or 60 mg/kg) | % improvement of DAI vs DSS (murine DSS colitis model; 30 mg/kg NAM) [%] | % improvement of DAI vs DSS (murine DSS colitis model; 120 mg/kg NAM) [%] | % improvement of DAI vs DSS (murine DSS colitis model; 240 mg/kg NAM) [%] | disease activity index (DAI), dose effect (murine DSS colitis model; NAM alone from 30 to 240 mg/kg) | macroscopic inflammation score, dose effect (murine DSS colitis model; NAM alone, 30 to 240 mg/kg) | stool consistency (diarrhea) (murine DSS colitis model; different NAM doses alone)
Nc1ccc(O)c(C(=O)O)c1 [5-ASA, 5-aminosalicylic acid] | trend towards histological improvement | hardly improved | 28 | significant effect | 43 | 53 | no difference | stronger decrease of the DAI | – | – | – | – | – | – | –
NC(=O)c1cccnc1 [NAM, nicotinamide] | – | – | – | – | – | – | – | – | trend towards histological improvement | 39 | 40 | 40 | no dose response | slight dose-dependent effect | hardly improved
